Test results published in patent publication US9187460B2, “Estrogen receptor modulators and uses thereof” (SERAGON PHARMACEUTICALS, INC., priority 2011, dated 2015).

Legend:
ER-α = biological target: T1, ER-α (Homo sapiens, UniProt P03372); test: Breast Cancer Cell ER-α in Cell Western Assay (SP1); assay type: cell-based; details: MCF7, read-out: ER In-Cell Western Assay (SP1); Max Response
T1 construct: endogenous in cells; host or cells: MCF-7
Method: Breast Cancer Cell ER-α in Cell Western Assay (SP1)
MCF-7 cells were adjusted to a concentration of 200,000 cells per mL in RPMI containing 10% charcoal-stripped FBS and 20 mM HEPES. 16 microliters of the cell suspension (3200 cells) was added to each well of a poly-D-lysine 384 well plate, and the cells were incubated overnight to allow the cells to adhere. The following day an eleven point, serial semilog dilution of each compound was added to the cells in 16 μL at a final concentration ranging from 0.3-0.000003 μM. At 4 or 24 hr post compound addition, the cells were fixed (10% formalin in PBS) for 20 minutes. Cells were permeablized in PBS 0.1% Triton and blocked with LICOR blocking buffer (50 μl/well, 90′). The wells were then incubated overnight at 4° C. with SP1 rabbit monoclonal Ab (Thermo Scientific) diluted 1:1000 in LICOR blocking buffer/0.1% Tween-20. Wells which were treated with blocking buffer with Tween but no antibody were used as a background control. Wells were washed with 0.1% Tween-20/PBS and then incubated in goat anti-rabbit IRDye™ 800CW (LICOR Inc.; 1:1000) and DRAQ5 DNA dye (1:2000 for 2 mM stock) diluted in LICOR blocking buffer containing 0.1% Tween-20 and 0.01% SDS for 60 minutes. Cells were washed (50 μl/well, 5′ each) in 0.1% Tween-20/PBS. Plates were scanned on a LICOR Odyssey infrared imaging system. Integrated intensities in the 800 nm channel and 700 nm channel were measured to determine levels of ER and DNA respectively. Percent ER levels were determined as follows: (Integrated intensity 800 nm sample/integrated intensity 700 nm sample)/(Integrated intensity 800 nm untreated cells/integrated intensity 700 nm untreated cells)×100=% ER levels.

MCF-7 cells = test: Breast Cancer Cell Viability Assay (MCF7 Viability Assay); assay type: cell-based; details: for IC50: Homo sapiens, MCF7, 120 h, read-out: MCF7 Viability Assay IC50; for MCF7 Viability Assay Max Response: MCF-7 cells, 5 days' compound exposure, CellTiter-Glo

T1 sequence (P03372 whole entry): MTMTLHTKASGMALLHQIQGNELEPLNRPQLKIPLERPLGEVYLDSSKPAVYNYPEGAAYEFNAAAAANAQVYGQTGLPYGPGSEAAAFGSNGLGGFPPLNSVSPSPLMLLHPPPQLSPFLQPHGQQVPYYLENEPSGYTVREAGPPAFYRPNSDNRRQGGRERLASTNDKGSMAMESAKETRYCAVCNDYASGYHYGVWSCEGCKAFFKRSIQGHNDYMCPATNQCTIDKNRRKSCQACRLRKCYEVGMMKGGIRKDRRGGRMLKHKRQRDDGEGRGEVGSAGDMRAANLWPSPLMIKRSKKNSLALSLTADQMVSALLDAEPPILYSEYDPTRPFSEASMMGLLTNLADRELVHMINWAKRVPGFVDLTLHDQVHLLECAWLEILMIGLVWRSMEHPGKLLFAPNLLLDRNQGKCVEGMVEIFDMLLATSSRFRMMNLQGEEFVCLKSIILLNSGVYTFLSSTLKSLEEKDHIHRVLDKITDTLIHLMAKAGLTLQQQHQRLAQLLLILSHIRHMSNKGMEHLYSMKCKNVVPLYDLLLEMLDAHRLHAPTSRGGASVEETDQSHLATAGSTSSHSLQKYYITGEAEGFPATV

SMILES	Emax (ER-α)	IC50 (MCF-7 cells)	MCF7 Viability Assay Max Response (MCF-7 cells)
CC1=C(c2cc(O)cc(Br)c2)C(c2ccc(OC[C@H](C)N3CC[C@@H](C)C3)cc2)Oc2ccc(O)cc21 (stereo partly drawn) [Example 1, 3-(3-Bromo-5-hydroxyphenyl)-4-methyl-2-(4-((S)-2-((R)-3-methylpyrrolidin-1-yl)propoxy)phenyl)-2H-chromen-6-ol]	> 85%	< 1 nM	++ (++ = a single % value ≧50%)
CC1=C(c2cc(O)ccc2Br)C(c2ccc(OC[C@H](C)N3CC[C@@H](C)C3)cc2)Oc2ccc(O)cc21 (stereo partly drawn) [Example 2, 3-(2-Bromo-5-hydroxyphenyl)-4-methyl-2-(4-((S)-2-((R)-3-methylpyrrolidin-1-yl)propoxy)phenyl)-2H-chromen-6-ol]	> 85%	< 1 nM	++ (++ = a single % value ≧50%)
CC1=C(c2ccccc2Br)C(c2ccc(OC[C@H](C)N3CC[C@@H](C)C3)cc2)Oc2ccc(O)cc21 (stereo partly drawn) [Example 3, 3-(2-Bromophenyl)-4-methyl-2-(4-((S)-2-((R)-3-methylpyrrolidin-1-yl)propoxy)phenyl)-2H-chromen-6-ol]	60 to 85%	< 1 nM	++ (++ = a single % value ≧50%)
CC1=C(c2ccc(Br)cc2C)C(c2ccc(OC[C@H](C)N3CC[C@@H](C)C3)cc2)Oc2ccc(O)cc21 (stereo partly drawn) [Example 4, 3-(4-Bromo-2-methylphenyl)-4-methyl-2-(4-((S)-2-((R)-3-methylpyrrolidin-1-yl)propoxy)phenyl)-2H-chromen-6-ol]	60 to 85%	> 1 nM	++ (++ = a single % value ≧50%)
CC1=C(c2ccc(C#N)cc2)C(c2ccc(OC[C@H](C)N3CC[C@@H](C)C3)cc2)Oc2ccc(O)cc21 (stereo partly drawn) [Example 5, 4-(6-Hydroxy-4-methyl-2-(4-((S)-2-((R)-3-methylpyrrolidin-1-yl)propoxy)phenyl)-2H-chromen-3-yl)benzonitrile]	60 to 85%	> 1 nM	++ (++ = a single % value ≧50%)
CC1=C(c2cccc(C#N)c2)C(c2ccc(OC[C@H](C)N3CC[C@@H](C)C3)cc2)Oc2ccc(O)cc21 (stereo partly drawn) [Example 6, 3-(6-Hydroxy-4-methyl-2-(4-((S)-2-((R)-3-methylpyrrolidin-1-yl)propoxy)phenyl)-2H-chromen-3-yl)benzonitrile]	60 to 85%	> 1 nM	++ (++ = a single % value ≧50%)
CC1=C(c2cc(O)cc(C#N)c2)C(c2ccc(OC[C@H](C)N3CC[C@@H](C)C3)cc2)Oc2ccc(O)cc21 (stereo partly drawn) [Example 7, 3-Hydroxy-5-(6-hydroxy-4-methyl-2-(4-((S)-2-((R)-3-methylpyrrolidin-1-yl)propoxy)phenyl)-2H-chromen-3-yl)benzonitrile]	60 to 85%	< 1 nM	++ (++ = a single % value ≧50%)
CC1=C(c2cc(O)ccc2C#N)C(c2ccc(OC[C@H](C)N3CC[C@@H](C)C3)cc2)Oc2ccc(O)cc21 (stereo partly drawn) [Example 8, 4-Hydroxy-2-(6-hydroxy-4-methyl-2-(4-((S)-2-((R)-3-methylpyrrolidin-1-yl)propoxy)phenyl)-2H-chromen-3-yl)benzonitrile]	> 85%	< 1 nM	++ (++ = a single % value ≧50%)
CC1=C(c2cccc(O)c2C#N)C(c2ccc(OC[C@H](C)N3CC[C@@H](C)C3)cc2)Oc2ccc(O)cc21 (stereo partly drawn) [Example 9, 2-Hydroxy-6-(6-hydroxy-4-methyl-2-(4-((S)-2-((R)-3-methylpyrrolidin-1-yl)propoxy)phenyl)-2H-chromen-3-yl)benzonitrile]	60 to 85%	> 1 nM	++ (++ = a single % value ≧50%)
CC1=C(c2ccc(C#N)c(O)c2)C(c2ccc(OC[C@H](C)N3CC[C@@H](C)C3)cc2)Oc2ccc(O)cc21 (stereo partly drawn) [Example 10, 2-Hydroxy-4-(6-hydroxy-4-methyl-2-(4-((S)-2-((R)-3-methylpyrrolidin-1-yl)propoxy)phenyl)-2H-chromen-3-yl)benzonitrile]	> 85%	> 1 nM	++ (++ = a single % value ≧50%)
CC1=C(c2ccc(O)c(C#N)c2)C(c2ccc(OC[C@H](C)N3CC[C@@H](C)C3)cc2)Oc2ccc(O)cc21 (stereo partly drawn) [Example 11, 2-Hydroxy-5-(6-hydroxy-4-methyl-2-(4-((S)-2-((R)-3-methylpyrrolidin-1-yl)propoxy)phenyl)-2H-chromen-3-yl)benzonitrile]	> 85%	> 1 nM	++ (++ = a single % value ≧50%)
CC1=C(c2ccc(O)cc2C#N)C(c2ccc(OC[C@H](C)N3CC[C@@H](C)C3)cc2)Oc2ccc(O)cc21 (stereo partly drawn) [Example 12, 5-Hydroxy-2-(6-hydroxy-4-methyl-2-(4-((S)-2-((R)-3-methylpyrrolidin-1-yl)propoxy)phenyl)-2H-chromen-3-yl)benzonitrile]	60 to 85%	< 1 nM	++ (++ = a single % value ≧50%)
CC1=C(c2ccc(C#N)cc2C)C(c2ccc(OC[C@H](C)N3CC[C@@H](C)C3)cc2)Oc2ccc(O)cc21 (stereo partly drawn) [Example 13, 4-(6-Hydroxy-4-methyl-2-(4-((S)-2-((R)-3-methylpyrrolidin-1-yl)propoxy)phenyl)-2H-chromen-3-yl)-3-methylbenzonitrile]	60 to 85%	> 1 nM	++ (++ = a single % value ≧50%)
CC1=C(c2ccccc2C#N)C(c2ccc(OC[C@H](C)N3CC[C@@H](C)C3)cc2)Oc2ccc(O)cc21 (stereo partly drawn) [Example 14, 2-(6-Hydroxy-4-methyl-2-(4-((S)-2-((R)-3-methylpyrrolidin-1-yl)propoxy)phenyl)-2H-chromen-3-yl)benzonitrile]	60 to 85%	> 1 nM	++ (++ = a single % value ≧50%)
CC1=C(c2cccc(S(C)(=O)=O)c2)C(c2ccc(OC[C@H](C)N3CC[C@@H](C)C3)cc2)Oc2ccc(O)cc21 (stereo partly drawn) [Example 15, 4-Methyl-2-(4-((S)-2-((R)-3-methylpyrrolidin-1-yl)propoxy)phenyl)-3-(3-(methylsulfonyl)phenyl)-2H-chromen-6-ol]	60 to 85%	> 1 nM	++ (++ = a single % value ≧50%)
CC1=C(c2cc(O)cc(S(C)(=O)=O)c2)C(c2ccc(OC[C@H](C)N3CC[C@@H](C)C3)cc2)Oc2ccc(O)cc21 (stereo partly drawn) [Example 16, 3-(3-Hydroxy-5-(methylsulfonyl)phenyl)-4-methyl-2-(4-((S)-2-((R)-3-methylpyrrolidin-1-yl)propoxy)phenyl)-2H-chromen-6-ol]	60 to 85%	> 1 nM	++ (++ = a single % value ≧50%)
CC1=C(c2ccc(O)c(S(C)(=O)=O)c2)C(c2ccc(OC[C@H](C)N3CC[C@@H](C)C3)cc2)Oc2ccc(O)cc21 (stereo partly drawn) [Example 17, 3-(4-Hydroxy-3-(methylsulfonyl)phenyl)-4-methyl-2-(4-((S)-2-((R)-3-methylpyrrolidin-1-yl)propoxy)phenyl)-2H-chromen-6-ol]	< 60%	> 1 nM	+ (+ = a single % value <50%)
